“And” between values parts separate entries of the source, which are not always exact repeats. Equal values may be shown once. Read-outs that look alike come from different tables or passages of the source.
Columns and labels:
Format in all cases: cell-based, human
NB4 cells [1] = settings: 10 d; doses of Table 2 (alone 30 μM, pairs 15 μM each, DCI 10 μM each)
Experimental: NB4 cells at the logarithmic growth phase were seeded at a density of 2×10^5 cells/well into a 6-well plate, and dosed 24 h later. […] NB4 cells cultured for 10 d were centrifuged at 110 g for 3 min, smeared, fixed with methanol, and air dried naturally. Then, the cell smear was stained with Wright's-Giemsa for morphological observation. The experiment was repeated three times.

CD33 = test system: CD33
Experimental: (§1) In an immunological marker examination of APL cells, CD11b is negative and CD33 is positive. The surface antigen CD33 is associated with the degree of cellular immaturity, while the surface antigen CD11b is associated with the degree of cellular maturity, High expression of CD11b, as an adhesion molecule on the cell surface, may be a marker of cell differentiation maturation.
(§2) NB4 cells at the logarithmic growth phase were seeded at a density of 2×10^5 cells/well into a 6-well plate, and dosed 24 h later. […] 24 h after the last dosing, cells were collected, centrifuged to remove the culture medium, washed twice with precooled PBS, and resuspended in 100 μL PBS. APC (allophycocyanin) and BB515 labeled CD11b and CD33 monoclonal antibodies and corresponding isotype antibodies (both purchased from BD, USA) were added respectively. Following mixing, the cells were incubated at 4° C. for 30 min, filtered through a cell filter membrane, and then detected.

CD11b = test system: CD11b
Experimental: as §1, §2

NB4 cells [2] = settings: single compound 30 μM; dosed 10 d
Experimental: When normal neutrophils or differentiated cells are stimulated, the production of intracellular superoxide anions increases. NBT receives hydrogen from NADPH in the differentiated cells and reduces into insoluble blue black or blue purple particles—formazane particles.
NB4 cells at the logarithmic growth phase were seeded at a density of 2×10^5 cells/well into a 6-well plate, and dosed 24 h later. […] 24 h after the last dose, the culture medium was discarded, and the cells were washed twice with PBS. 500 μL of a 0.1% NBT solution (purchased from Sigma and prepared from PBS) containing 1 μg/ml of phorbol ester (PMA, purchased from Sigma) was added to each well, and the cells were incubated at 37° C. for 30 min, washed twice with PBS, and observed under a microscope. In a 400× magnification field, 200 cells were randomly counted from each specimen. Cells containing gray or black formazane particles in the cytoplasm were counted as NBT reduction positive cells, and the percentage of the reduction positive cells was calculated. The experiment was repeated three times.

NB4 cells [3] = settings: 24 h
Experimental: The ANNEXIN V-FITC/PI double-staining method is established based on a principle of asymmetric loss of cell membrane in apoptotic cells, that is, externalization of phosphatidylserine. Determination of results: normal live cells: annexin V^−PI^−; apoptotic cells: annexin V^+PI^−, and necrotic or late apoptotic cells: annexin V^+PI^+.
NB4 cells at the logarithmic growth phase were seeded at a density of 1×10^5 cells/well into a 6-well plate, and dosed 24 h later. The proapoptotic effect of each group was detected according to the dosing methods in Table 1. The cells were collected 24 h after drug dosing and detected on a flow cytometer according to the operating procedure of an ANNEXIN V-FITC/PI apoptosis detection kit (purchased from Solarbio). The experiment was repeated three times.

[4] = single compound 30 μM, dosed 10 d

SMILES | Morphology of NB4 cells (NB4 cells [1]) | Positive rate of CD33 expression in NB4 cells (%) (CD33; [4]) | Positive rate of CD11b expression in NB4 cells (%) (CD11b; [4]) | NBT reduction positive rate in NB4 cells (%) (NB4 cells [2]) | Apoptosis rate of NB4 cells (%) (NB4 cells [3]; single compound 20 μM) | Apoptosis rate of NB4 cells (%) (NB4 cells [3]; single compound 40 μM) | Positive rate of CD33 expression in NB4 cells (%) (CD33) | Positive rate of CD11b expression in NB4 cells (%) (CD11b)
Nc1ncnc2c1ncn2[C@@H]1O[C@H](CO)C[C@H]1O [CDY, Cordycepin] | no significant differences from the control group | 37.14 ± 15.90% | 1.79 ± 1.42% | 3.19% and 3.19 ± 2.09% | 10.70 ± 3.54% | 19.39 ± 5.64% |  | 
O=C1Nc2ccccc2/C1=C1/Nc2ccccc2C1=O [IDB, Indirubin] |  |  |  | 15.20% and 15.20 ± 4.10 % | 28.88 ± 11.51% | 31.38 ± 8.92 % | 27.50 ± 16.67 % | 26.42 ± 10.91 %

— patent US20250127751A1, “Traditional Chinese Medicine Compound Preparation for Tumors and Application thereof” (priority 2023, published 2025)
